Measured values taken from PMC3281113, “Recognition of Anesthetic Barbiturates by a Protein Binding Site: A High Resolution Structural Analysis” (PLoS ONE, 2012).
Read-outs that look alike come from different tables or passages of the source.

Legend:
[1] = molecular target: T1, horse spleen apoferritin (Equus caballus, UniProt P02791); assay: isothermal titration calorimetry; assay type: binding
T1 construct: gene FTL; native spleen apoferritin from Sigma-Aldrich, 24-mer, heavy and light chains in approximate mole ratio 1:6; with Ferritin heavy chain
T1 sequence (P02791 2-175): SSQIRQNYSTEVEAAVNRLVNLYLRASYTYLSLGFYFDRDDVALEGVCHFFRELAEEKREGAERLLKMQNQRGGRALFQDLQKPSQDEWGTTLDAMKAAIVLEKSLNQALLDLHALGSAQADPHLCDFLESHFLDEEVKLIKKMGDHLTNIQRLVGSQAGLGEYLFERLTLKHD

[2] = molecular target: the molecule itself; assay: crystal structure; apoferritin co-crystallized with thiopental or pentobarbital; reservoir 0.2-1.6 M (NH4)2SO4, 0.1-0.275 M CdSO4, 18°C; space group F432

## CCCC(C)C1(CC)C(=O)NC(=O)NC1=O (racemic) [Pentobarbital]
[1]
  Kd: 64.3 ± 5.5 µM

## CCCC(C)C1(CC)C(=O)NC(=S)NC1=O (racemic) [Thiopental]
[1]; read-out: Thiopental
  Kd: 11 ± 0.9 µM

## CCC[C@@H](C)C1(CC)C(=O)NC(=S)NC1=O [R-form of thiopental]
[1]; read-out: K d
  Kd: 29.3 ± 3.1 µM

## CCC[C@H](C)[C@@]1(CC)C(=O)N=C(S)NC1=O [S-enantiomer of thiopental]
[1]; read-out: K d
  Kd: 18.7 ± 0.9 µM

B1: horse spleen apoferritin (natural protein, UniProt P02791 1-175, looked up)
chain: MSSQIRQNYSTEVEAAVNRLVNLYLRASYTYLSLGFYFDRDDVALEGVCHFFRELAEEKREGAERLLKMQNQRGGRALFQDLQKPSQDEWGTTLDAMKAAIVLEKSLNQALLDLHALGSAQADPHLCDFLESHFLDEEVKLIKKMGDHLTNIQRLVGSQAGLGEYLFERLTLKHD
notes: ferritin light chain of horse spleen apoferritin; only the light chain is modelled in the structures; The commercial apoferritin is a mixture of heavy and light chains in an approximate mole ratio of 1:6; Only the light chain is seen in the electron density, so the 24-mer is written here as light chains only; also called L-chain; L-protomers; source: bought: Sigma-Aldrich; purified by gel …
[2]
  stoichiometry N: 24
